Columns and labels:
Experiment in all cases: relative viability (nuclei count vs DMSO), 5 days (fraction); higher = more cells survive
Sunitinib + Trametinib = compound: CCN(CC)CCNC(=O)c1c(C)[nH]c(/C=C2\C(=O)Nc3ccc(F)cc32)c1C [Sunitinib] + CC(=O)Nc1cccc(-n2c(=O)n(C3CC3)c(=O)c3c(Nc4ccc(I)cc4F)n(C)c(=O)c(C)c32)c1 [Trametinib] (partner 0.02 µM)
Outline: (§1)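 Relative viability equals treated-well nuclei counts divided by vehicle-well nuclei counts. Counts came from 4× images of lung cancer cell lines grown in 1536-well plates for 5 days after pin-tool dosing on the day after seeding. Dosing used one drug alone or a fixed anchor-drug dose plus five library-drug doses (not always all listed) in √10 steps, and values are medians of duplicate plates.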

Sunitinib + Olaparib = compound: CCN(CC)CCNC(=O)c1c(C)[nH]c(/C=C2\C(=O)Nc3ccc(F)cc32)c1C [Sunitinib] + O=C(c1cc(Cc2n[nH]c(=O)c3ccccc23)ccc1F)N1CCN(C(=O)C2CC2)CC1 [Olaparib] (partner 8 µM)
Outline: as §1

Sunitinib + Bortezomib = compound: CCN(CC)CCNC(=O)c1c(C)[nH]c(/C=C2\C(=O)Nc3ccc(F)cc32)c1C [Sunitinib] + CC(C)C[C@H](NC(=O)[C@H](Cc1ccccc1)NC(=O)c1cnccn1)B(O)O [Bortezomib] (partner 0.002 µM)
Outline: as §1

Sunitinib + Pictilisib = compound: CCN(CC)CCNC(=O)c1c(C)[nH]c(/C=C2\C(=O)Nc3ccc(F)cc32)c1C [Sunitinib] + CS(=O)(=O)N1CCN(Cc2cc3nc(-c4cccc5[nH]ncc45)nc(N4CCOCC4)c3s2)CC1 [Pictilisib] (partner 1 µM)
Outline: as §1

Cell Line | relative viability (Sunitinib + Trametinib; first compound 0.02 µM) | relative viability (Sunitinib + Trametinib; first compound 0.06325 µM) | relative viability (Sunitinib + Trametinib; first compound 0.2 µM) | relative viability (Sunitinib + Trametinib; first compound 0.6325 µM) | relative viability (Sunitinib + Trametinib; first compound 2 µM) | relative viability (Sunitinib + Olaparib; first compound 0.02 µM) | relative viability (Sunitinib + Olaparib; first compound 0.06325 µM) | relative viability (Sunitinib + Olaparib; first compound 0.2 µM) | relative viability (Sunitinib + Olaparib; first compound 0.6325 µM) | relative viability (Sunitinib + Olaparib; first compound 2 µM) | relative viability (Sunitinib + Bortezomib; first compound 0.02 µM) | relative viability (Sunitinib + Bortezomib; first compound 0.06325 µM) | relative viability (Sunitinib + Bortezomib; first compound 0.2 µM) | relative viability (Sunitinib + Bortezomib; first compound 0.6325 µM) | relative viability (Sunitinib + Bortezomib; first compound 2 µM) | relative viability (Sunitinib + Pictilisib; first compound 0.02 µM) | relative viability (Sunitinib + Pictilisib; first compound 0.06325 µM) | relative viability (Sunitinib + Pictilisib; first compound 0.2 µM) | relative viability (Sunitinib + Pictilisib; first compound 0.6325 µM) | relative viability (Sunitinib + Pictilisib; first compound 2 µM)
NCI-H1437 | 0.478 | 0.539 | 0.611 | 0.607 | 0.537 | 0.623 | 0.641 | 0.614 | 0.61 | 0.647 | 0.567 | 0.643 | 0.514 | 0.494 | 0.551 | 0.376 | 0.559 | 0.427 | 0.456 | 0.434
NCI-H1650 | 0.509 | 0.63 | 0.874 | 0.621 | 0.552 | 0.744 | 0.742 | 0.822 | 0.791 | 0.738 | 0.194 | 0.226 | 0.192 | 0.203 | 0.211 | 0.535 | 0.559 | 0.545 | 0.681 | 0.536
NCI-H1651 | 0.801 | – | 0.901 | – | 0.847 | 0.213 | 0.196 | 0.199 | 0.17 | 0.179 | – | 1.06 | 0.987 | 0.884 | 0.968 | 0.462 | 0.729 | 0.616 | 0.614 | 0.593
NCI-H1666 | 0.843 | 0.888 | 1.09 | 0.879 | 0.882 | 0.77 | 0.825 | 0.75 | 0.862 | 0.85 | 0.867 | – | 1.01 | 0.839 | 0.86 | 0.459 | 0.517 | 0.603 | 0.55 | 0.429
NCI-H1734 | 0.595 | 0.665 | 0.747 | 0.653 | 0.644 | 0.552 | 0.618 | 0.691 | 0.619 | 0.539 | 0.855 | 0.962 | 1.35 | 1.09 | 0.911 | 0.433 | 0.518 | 0.522 | 0.452 | 0.423
NCI-H1755 | 0.763 | 0.768 | 0.92 | 0.736 | 0.767 | 0.859 | 0.881 | 0.93 | 0.961 | 0.91 | 0.992 | 1.02 | 1.04 | 0.93 | – | 0.371 | 0.481 | 0.472 | 0.454 | 0.451
NCI-H1792 | 0.463 | 0.417 | 0.533 | 0.442 | 0.377 | 0.491 | 0.371 | 0.98 | 0.404 | 0.384 | 0.93 | 0.924 | 1.09 | 0.99 | 0.981 | 0.242 | 0.291 | 0.243 | 0.242 | 0.265
NCI-H1915 | 0.291 | 0.291 | 0.304 | 0.298 | 0.261 | 0.261 | 0.288 | 0.268 | 0.245 | 0.289 | – | 0.994 | 1 | 1.05 | 1.02 | 0.958 | 1.01 | 1.02 | 0.977 | 1.02
NCI-H1975 | 0.322 | 0.361 | 0.33 | 0.421 | 0.316 | 0.742 | 0.8 | 0.946 | 0.868 | 0.714 | 0.401 | 0.448 | 0.401 | 0.438 | 0.406 | 0.285 | 0.345 | 0.319 | 0.33 | 0.237
NCI-H1993 | 0.51 | 0.53 | 0.448 | 0.424 | 0.651 | 1.02 | 0.979 | 1.12 | 0.844 | 1.03 | 1.1 | 1.34 | 1.36 | – | 1.04 | 0.777 | 0.913 | 0.808 | 0.832 | 0.92
NCI-H2009 | 0.242 | 0.332 | 0.274 | 0.25 | 0.181 | 0.675 | 0.739 | 0.717 | 0.799 | 0.778 | 0.973 | – | 1.01 | 1.17 | 1.18 | 0.748 | 0.791 | 0.842 | 0.876 | 0.758
NCI-H2023 | 0.425 | 0.615 | 0.614 | 0.454 | 0.444 | 0.487 | 0.485 | 0.518 | 0.462 | 0.465 | 0.921 | 1.13 | 1.11 | 1.22 | – | 0.205 | 0.265 | 0.26 | 0.269 | 0.23
NCI-H2085 | 0.5 | 0.515 | 0.515 | 0.634 | 0.71 | 0.777 | 0.801 | 0.819 | 0.808 | 0.787 | 1 | 1.05 | – | 1.16 | 1.07 | 0.431 | 0.476 | 0.519 | 0.519 | 0.555
NCI-H2087 | 0.2 | 0.234 | 0.266 | 0.211 | 0.237 | 0.605 | 0.689 | 0.822 | 0.674 | 0.56 | 0.855 | 0.793 | 0.966 | 0.994 | 1.04 | 0.957 | 0.831 | 1.04 | 0.879 | 0.799
NCI-H2126 | 0.545 | 0.59 | 0.612 | 0.573 | 0.605 | 0.924 | 0.978 | 0.978 | 1 | 0.884 | 1.07 | 1.19 | 1.16 | 1.15 | 1.13 | 0.465 | 0.55 | 0.517 | 0.563 | 0.502
NCI-H2228 | 0.574 | 0.568 | 0.593 | 0.558 | 0.285 | 0.608 | 0.55 | 0.98 | 0.772 | 0.544 | 1.04 | 1.14 | 1.22 | 1.15 | 1 | 0.536 | 0.445 | 0.299 | 0.454 | 0.216
NCI-H2347 | 0.293 | 0.251 | 0.24 | 0.314 | 0.296 | 0.596 | 0.611 | 0.695 | 0.609 | 0.572 | 0.853 | 1.21 | 1.1 | – | 1.11 | 0.554 | 0.91 | 0.691 | 0.705 | 0.912
NCI-H2405 | 0.59 | 0.582 | 0.662 | 0.672 | 0.628 | 0.855 | 0.965 | 0.88 | 0.96 | 0.93 | 0.997 | 0.924 | 1.09 | 1.08 | 1 | 0.382 | 0.49 | 0.502 | 0.524 | 0.474
NCI-H3122 | 0.289 | 0.287 | 0.231 | 0.233 | 0.299 | 0.636 | 0.692 | 0.657 | 0.606 | 0.585 | 1.01 | 1.01 | – | 0.985 | 0.985 | 0.576 | 0.64 | 0.583 | 0.577 | 0.548
PC-3 [JPC-3] | 0.754 | 0.715 | 0.667 | 0.772 | 0.59 | 1.05 | 1.12 | 1.22 | 1.12 | 0.926 | 0.836 | 0.88 | 0.893 | 0.869 | 0.732 | 0.819 | 0.768 | 0.841 | 0.685 | 0.694
PC-14 | 0.665 | 0.743 | 0.833 | 0.771 | 0.579 | 0.292 | 0.334 | 0.196 | 0.335 | 0.211 | 0.946 | 0.858 | 0.99 | 0.878 | 0.726 | 0.698 | 0.723 | 0.957 | 0.706 | 0.553
RERF-LC-KJ | 0.903 | 0.854 | 0.953 | 0.87 | 0.86 | 0.872 | 0.939 | 1.04 | 0.971 | 0.896 | 0.994 | – | 1.26 | 1.03 | 1.09 | 0.642 | 0.507 | 0.51 | 0.468 | 0.528
SK-LU-1 | 0.432 | 0.518 | 0.545 | 0.537 | 0.525 | 0.422 | 0.494 | 0.555 | 0.491 | 0.532 | 0.959 | 1.26 | 1.38 | 1.36 | 0.982 | 0.538 | 0.66 | 0.603 | 0.53 | 0.483
SW 1573 | 0.522 | 0.626 | 0.515 | 0.729 | 0.582 | 0.488 | 0.56 | 0.622 | 0.522 | 0.511 | 0.944 | 1.11 | 1.2 | 1.22 | 1 | 0.511 | 0.438 | 0.591 | 0.555 | 0.458
UMC-11 | 0.709 | 0.793 | 0.811 | 0.787 | 0.783 | 0.387 | 0.382 | 0.674 | 0.324 | 0.324 | 0.61 | – | 0.841 | 0.762 | 0.896 | 0.793 | 0.883 | 0.968 | 0.814 | 0.866

From the supplement of paper PMC10307832
